# From US6124347A, “Chromene derivatives and salts thereof, and pharmaceuticals containing the same” (SSP Co., Ltd., priority 1997, dated 2000)
# Tested on: ovolysozyme
# Test: AGE formation inhibitory action (lysozyme dimer formation with xylose, SDS-PAGE, silver staining)
# Assay type: biochemical
# Conditions: 1 mg/ml ovolysozyme, 100 mM xylose, pH 7.4, 37° C., 21 days; dimer (28.8 Kda) formation relative to control
# Experimental: With respect to each test compound, solutions of the test compound in dimethyl sulfoxide, said solutions containing said test compound at various concentrations, were each added together with 1 mg/ml of ovolysozyme and 100 mM of xylose to a phosphate-buffered physiological saline of pH 7.4. Each reaction mixture was then incubated at 37° C. for 21 days. A portion of the reaction mixture, said portion being in a predetermined amount, was then separated by sodium lauryl sulfate-polyacrylamide gel electrophoresis (SDS-PAGE). After the electrophoresis, the gel was treated by silver staining to stain proteins. AGE formation inhibitory action of the test compound was calculated in terms of 50% inhibitory concentration by image-processing and analyzing the degree of formation of the dimer (28.8 Kda) of lysozyme (14.4 Kda) relative to that in a control, that is, a reaction mixture not added with the test compound while making use of NIH Image Ver. 1.55.
row,Compound,"IC50 (AGE formation inhibitory action, 50% inhibitory concentration) [µg/mL]"
1,"COc1cc(C(O)CNCC2=Cc3ccccc3OC2)cc(OC)c1O (stereo not shown) [Compound 9, 4-{2-[(2H-3-chromenylmethyl)amino]-1-hydroxyethyl}-2,6-dimethoxyphenol]",30
2,COc1cccc2c1OCC(CNCC(O)c1ccc(O)c(O)c1)=C2 (stereo not shown) [Compound 15],3
3,"N=C(N)NN [Amionoguanidine, aminoguanidine, reference compound]",30
4,Oc1cccc(C(O)CNCC2=Cc3ccccc3OC2)c1 (stereo not shown) [Compound 6],10
